# Measured values as given in patent US9206122B2, “Pesticidal arylpyrrolidines” (BAYER INTELLECTUAL PROPERTY GMBH, priority 2012, dated 2015).
# Key:
# Assay type in all cases: in vivo
# Boophilus microplus = Boophilus microplus injection test; details: 20 μg/animal, injected into abdomen of adult engorged female ticks; egg deposition monitored after 7 days
# Experimental: Boophilus microplus Injectiontest Solvent: dimethyl sulfoxide To produce a suitable preparation of active compound, 10 mg of active compound are dissolved in 0.5 ml solvent, and the concentrate is diluted with solvent to the desired concentration. Five adult engorged female ticks (Boophilus microplus) are injected with 1 μl compound solution into the abdomen. Ticks are transferred into replica plates and incubated in a climate chamber. After 7 days, the egg deposition of fertile eggs is monitored. Eggs where fertility is not visible are stored in glass tubes in a climate chamber till hatching after about 42 days. An efficacy of 100% means that all eggs are infertile; 0% means that all eggs are fertile.
# Lucilia cuprina = assay: whole plant or invertebrate; details: in Equus caballus, 48 h
# Experimental: solvent: dimethyl sulfoxide
# 10 mg active compound are dissolved in 0.5 ml Dimethylsulfoxid. Serial dilutions are made to obtain the desired rates.
# Approximately 20 1st instar larvae of the Australian sheep blowfly (Lucilia cuprina) are transferred into a test tube containing minced horse meat and compound solution of the desired concentration.
# After 2 days mortality in % is determined. 100% means that all the larvae have been killed; 0% means that none of the larvae have been killed.
# Musca domestica = assay: whole plant or invertebrate; details: 48 h
# Experimental: (§1) Solvent: dimethyl sulfoxide
# To produce a suitable preparation of active compound, 10 mg of active compound are dissolved in 0.5 ml solvent, and the concentrate is diluted with water to the desired concentration.
# 10 adult house flies (Musca domestica) are transferred into a container, containing a sponge soaked with a mixture of sugar solution and compound solution of the desired concentration.
# After 2 days mortality in % is determined. 100% means that all the flies have been killed; 0% means that none of the flies have been killed.
# Ctenocephalides felis = assay: whole plant or invertebrate; details: po, 48 h
# Experimental: Ctenocephalides felis—Oral Test
# as §1
# To produce a suitable preparation of active compound, 10 mg of active compound are dissolved in 0.5 ml solvent, and the concentrate is diluted with cattle blood to the desired concentration.
# Approximately 20 adult unfed cat fleas (Ctenocephalides felis) are placed in flea chambers. The blood chamber, sealed with parafilm on the bottom, are filled with cattle blood supplied with compound solution and placed on the gauze covered top of the flea chamber, so that the fleas are able to suck the blood. The blood chamber is heated to 37° C. whereas the flea chamber is kept at room temperature.
# After 2 days mortality in % is determined 100% means that all the fleas have been killed; 0% means that none of the fleas have been killed.
# Myzus persicae = assay: whole plant or invertebrate; details: in Brassica rapa, foliar, 144 h
# Experimental: Myzus persicae—Spray Test
# (§2) Solvent: 78.0 parts by weight acetone
# (§3) • 1.5 parts by weight dimethylformamide Emulsifier: 0.5 parts by weight alkylarylpolyglycolether
# (§4) To produce a suitable preparation of active compound, 1 part by weight of active compound is mixed with the stated amount of solvent and emulsifier, and the concentrate is diluted with emulsifier-containing water to the desired concentration.
# Chinese cabbage (Brassica pekinensis) leaf disks infected with all instars of the green peach aphid (Myzus persicae), are sprayed with a preparation of the active ingredient of the desired concentration.
# After 6 days, mortality in % is determined 100% means that all aphids have been killed; 0% means that none of the aphids have been killed.
# Spodoptera frugiperda = assay: whole plant or invertebrate; details: in Zea mays, 168 h
# Experimental: Spodoptera frugiperda—Spray Test
# as §2, §3
# To produce a suitable preparation of the active compound, 1 part by weight of active compound is mixed with the stated amount of solvent and emulsifier, and the concentrate is diluted with emulsifier-containing water to the desired concentration.
# Maize (Zea mays) leaf sections are sprayed with a preparation of the active ingredient of the desired concentration. Once dry, the leaf sections are infested with fall armyworm larvae (Spodoptera frugiperda).
# After 7 days, mortality in % is determined 100% means that all caterpillars have been killed and 0% means that none of the caterpillars have been killed.
# Tetranychus urticae = assay: whole plant or invertebrate; details: 144 h
# Experimental: Tetranychus urticae—Spray Test, OP-Resistant
# as §2, §3, §4
# French beans (Phaseolus vulgaris) which are heavily infested with all stages of the two spotted spidermite (Tetranychus urticae), are sprayed with a preparation of the active ingredient of the desired concentration.
# After 6 days, mortality in % is determined. 100% means that all spider mites have been killed and 0% means that none of the spider mites have been killed.
# Phaedon cochleariae = assay: whole plant or invertebrate; details: in Brassica rapa, foliar, 168 h
# Experimental: Phaedon cochleariae—Spray Test
# Solvent: 78.0 parts by weight of acetone
# • 1.5 parts by weight of dimethylformamide Emulsifier: 0.5 parts by weight of alkylaryl polyglycolether
# as §4
# Chinese cabbage (Brassica pekinensis) leaf-disks are sprayed with a preparation of the active ingredient of the desired concentration. Once dry, the leaf disks are infested with mustard beetle larvae (Phaedon cochleariae).
# After 7 days mortality in % is determined. 100% means that all beetle larvae have been killed and 0% means that none of the beetle larvae have been killed.
Compound,efficacy (100% means that all eggs are infertile) (Boophilus microplus) [%],further results
CC(=O)NC1CCc2cc(N3CCC(c4cc(Cl)cc(Cl)c4)(C(F)(F)F)C3O)ccc21 (stereo not drawn) [I-A-1],100,–
CCC(=O)NC1CCc2cc(N3CCC(c4cc(Cl)cc(Cl)c4)(C(F)(F)F)C3O)ccc21 (stereo not drawn) [I-A-2],100,mortality at 100 ppm (Lucilia cuprina): 100%; mortality at 100 ppm (Musca domestica): 80%; mortality at 100 ppm (Ctenocephalides felis): 100%
CC(=O)NC1CCc2cc(N3CCC(c4cc(Cl)c(Cl)c(Cl)c4)(C(F)(F)F)C3O)ccc21 (stereo not drawn) [I-A-13],100,–
CC(C)CC(=O)NC1CCc2cc(N3CCC(c4cc(Cl)c(Cl)c(Cl)c4)(C(F)(F)F)C3O)ccc21 (stereo not drawn) [I-A-18],100,–
O=C(CC1CC1)NC1CCc2cc(N3CCC(c4cc(Cl)c(Cl)c(Cl)c4)(C(F)(F)F)C3O)ccc21 (stereo not drawn) [I-A-21],100,–
O=C(NC1CCc2cc(N3CCC(c4cc(Cl)c(F)c(Cl)c4F)(C(F)(F)F)C3O)ccc21)C1CC1 (stereo not drawn) [I-A-31],100,–
O=C(CC1CC1)NC1CCc2cc(N3CCC(c4cc(Cl)c(F)c(Cl)c4F)(C(F)(F)F)C3O)ccc21 (stereo not drawn) [I-A-33],100,–
CC(=O)NC1CCc2cc(N3CCC(c4cc(C(F)(F)F)cc(C(F)(F)F)c4)(C(F)(F)F)C3O)ccc21 (stereo not drawn) [I-A-37],100,–
"CCC(=O)NC1CCc2cc(N3CCC(c4cc(C(F)(F)F)cc(C(F)(F)F)c4)(C(F)(F)F)C3O)ccc21 (stereo not drawn) [I-A-38, N-(5-{3-[3,5-bis(trifluoromethyl)phenyl]-2-hydroxy-3-(trifluoromethyl)pyrrolidin-1-yl}-2,3-dihydro-1H-inden-1-yl)propanamide]",–,mortality at 100 g/ha (Myzus persicae): 100%; mortality at 100 g/ha (Spodoptera frugiperda): 100%; mortality at 100 g/ha (Tetranychus urticae): 90%; mortality at 100 g/ha (Phaedon cochleariae): 100%
CCCC(=O)NC1CCc2cc(N3CCC(c4cc(C(F)(F)F)cc(C(F)(F)F)c4)(C(F)(F)F)C3O)ccc21 (stereo not drawn) [I-A-40],100,–
O=C(NC1CCc2cc(N3CCC(c4cc(Cl)cc(C(F)(F)F)c4)(C(F)(F)F)C3O)ccc21)C1CC1 (stereo not drawn) [I-A-79],100,–
O=C(NC1CCc2cc(N3CCC(c4ccc(F)c(C(F)(F)F)c4)(C(F)(F)F)C3O)ccc21)C1CC1 (stereo not drawn) [I-A-115],100,–
